# Measurements: patent US4293650A, “Anti-coccidial substance and its preparation” (Rhone-Poulenc Industries, priority 1977, dated 1981)
# Columns and labels:
# [1] = system: chickens; test: Toxicity of medicated feed in chickens (non-toxic concentrations); format: in vivo; details: between 0.005% and 0.04% by weight in feed
# Method: Anti-coccidial activity: the anti-coccidial activity was determined in chickens infested in particular with Eimeria tenella and Eimeria acervulina.
# The anti-coccidial activity of 37,454 RP (sodium salt), incorporated into chicken feed, manifests itself at non-toxic concentrations of between 0.005% and 0.04% by weight of the sodium salt in the feed.
# [2] = system: Proteus vulgaris; test: Bacteriostatic activity in vitro (dilution method); format: cell-based; details: nutrient broth
# [3] = system: Neisseria catarrhalis (A 152, Institut Pasteur); test: Bacteriostatic activity in vitro (dilution method); format: cell-based; details: nutrient broth
# [4] = system: Shigella dysenteriae, Shiga L (Institut Pasteur); format: cell-based; details: nutrient broth
# [5] = system: Diplococcus pneumoniae, Til strain (Institut Pasteur); test: Bacteriostatic activity in vitro (dilution method); format: cell-based; details: nutrient broth
# [6] = system: Streptococcus faecalis - ATCC 8043; test: Bacteriostatic activity in vitro (dilution method); format: cell-based; details: nutrient broth
# [7] = system: Streptococcus pyogenes haemolyticus, Dig 7 strain (Institut Pasteur); test: Bacteriostatic activity in vitro (dilution method); format: cell-based; details: nutrient broth
# [8] = system: Mycobacterium species - ATCC 607; test: Bacteriostatic activity in vitro (dilution method); format: cell-based; details: nutrient broth
# [9] = system: Staphylococcus aureus,strain 209 P- ATCC 6538 P; test: Bacteriostatic activity in vitro (dilution method); format: cell-based; details: nutrient broth
# [10] = system: Bacillus cereus - ATCC 6630; test: Bacteriostatic activity in vitro (dilution method); format: cell-based; details: nutrient broth
# [11] = system: mice; test: Acute toxicity in mice; format: in vivo; details: orally, single dose
# Method: Acute toxicity: in mice, the 50% lethal dose (LD50) is 90 mg/kg given orally in a single dose.
# [12] = system: Salmonella schottmuelleri (paratyphi B), Fougenc strain (Institut Pasteur); test: Bacteriostatic activity in vitro (dilution method); format: cell-based; details: nutrient broth
# [13] = system: Sarcina lutea - ATCC 9341; test: Bacteriostatic activity in vitro (dilution method); format: cell-based; details: nutrient broth
# [14] = system: Staphylococcus aureus,Smith strain; test: Bacteriostatic activity in vitro (dilution method); format: cell-based; details: nutrient broth
# [15] = system: Pseudomonas aeruginosa; test: Bacteriostatic activity in vitro (dilution method); format: cell-based; details: nutrient broth
# [16] = system: Bacillus subtilis - ATCC 6633; test: Bacteriostatic activity in vitro (dilution method); format: cell-based; details: nutrient broth
smiles,measurement,setting,value
"CO[C@H]1CC[C@H](O[C@H]2[C@H](C)[C@@H]([C@H]3CC[C@H]([C@@H]4CC[C@H]([C@@]5(C)OC6(O[C@H](C[C@@H]7O[C@](O)([C@@H](O)C(=O)[O-])[C@@H](C)[C@H](OC)[C@@]7(C)OC)C[C@@H](OC)[C@H]6C)[C@H](C)[C@H]5OC)O4)O3)O[C@](C)(O)[C@@H]2C)O[C@@H]1C.[Na+] (stereo partly shown) [37,454 RP (sodium salt)]",Toxicity at active feed concentrations,[1],non-toxic
same,Minimum bacteriostatic concentration,[2],> 50 μg/cc
same,Minimum bacteriostatic concentration,[3],> 20 μg/cc
same,Minimum bacteriostatic concentration,[4],> 50 μg/cc
same,Minimum bacteriostatic concentration,[5],0.1 μg/cc
same,Minimum bacteriostatic concentration,[6],0.3 μg/cc
same,Minimum bacteriostatic concentration,[7],0.6 μg/cc
same,Minimum bacteriostatic concentration,[8],10 μg/cc
same,Minimum bacteriostatic concentration,[9],0.6 μg/cc
same,Minimum bacteriostatic concentration,[10],0.3 μg/cc
same,50% lethal dose (LD50),[11],90 mg/kg
same,Minimum bacteriostatic concentration,[12],> 50 μg/cc
same,Minimum bacteriostatic concentration,[13],0.9 μg/cc
same,Minimum bacteriostatic concentration,[14],0.8 μg/cc
same,Minimum bacteriostatic concentration,[15],> 15 μg/cc
same,Minimum bacteriostatic concentration,[16],0.8 μg/cc
